Data reported in paper PMC12916490 (Molecular Psychiatry, 2025).
Like-named read-outs stand apart in the source and are kept apart here.

Columns and labels:
h5-HT2C [1] = biological target: T1, h5-HT2C (Homo sapiens, UniProt P28335); experiment: biochemical; type: binding
T1 sequence (P28335 33-458): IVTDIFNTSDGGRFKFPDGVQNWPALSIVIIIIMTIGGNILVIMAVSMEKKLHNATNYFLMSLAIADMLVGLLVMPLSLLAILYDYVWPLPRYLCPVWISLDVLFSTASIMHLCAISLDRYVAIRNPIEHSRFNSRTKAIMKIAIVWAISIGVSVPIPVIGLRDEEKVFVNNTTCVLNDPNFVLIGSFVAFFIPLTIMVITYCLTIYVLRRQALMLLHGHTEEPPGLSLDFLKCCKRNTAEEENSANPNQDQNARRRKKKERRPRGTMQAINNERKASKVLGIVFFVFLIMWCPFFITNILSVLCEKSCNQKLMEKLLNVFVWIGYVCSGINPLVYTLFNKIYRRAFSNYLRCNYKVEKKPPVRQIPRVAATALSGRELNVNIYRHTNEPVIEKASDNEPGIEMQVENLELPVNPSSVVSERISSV

h5-HT2C [2] = biological target: T1, h5-HT2C; experiment: cell-based; details: for Emax: read-out: IP1 formation Emax h5-HT2C (95% CI)
hTAAR1 = biological target: T2, hTAAR1 (Homo sapiens, UniProt Q96RJ0); experiment: Functional activity at human TAAR1 (cAMP); type: cell-based; details: for Emax: mean (95% CI), β-phenylethylamine as maximal response, read-out: hTAAR1 Activation efficacy Emax
T2 construct: expressed in transfected cells
T2 sequence (Q96RJ0 1-339): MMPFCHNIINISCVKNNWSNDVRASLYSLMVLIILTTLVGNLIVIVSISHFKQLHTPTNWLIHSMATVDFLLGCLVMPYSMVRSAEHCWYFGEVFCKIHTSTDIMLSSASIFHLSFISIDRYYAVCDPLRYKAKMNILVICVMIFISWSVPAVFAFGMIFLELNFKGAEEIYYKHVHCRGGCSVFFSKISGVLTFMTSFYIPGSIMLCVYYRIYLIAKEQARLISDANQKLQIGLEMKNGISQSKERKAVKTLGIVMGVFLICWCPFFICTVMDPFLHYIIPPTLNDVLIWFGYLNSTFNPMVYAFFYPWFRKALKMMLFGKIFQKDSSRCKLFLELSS
Description: Activity at the human trace amine-associated receptor 1 (hTAAR1) was determined as previously described. More information can be found in the Supplementary information.
Then, the obtained RA values were used to calculate the bias factor (β) for each pathway combination. […]
pathway 1 over pathway 2. Brown-Forsythe and Welch ANOVA analyses were applied to estimate the statistical probability that β is different from zero.
3.3 Functional activity at the human TAAR1 […]
receptor 1 (hTAAR1) were generated by transfection with Lipofectamine 2000 (Invitrogen, Zug, Switzerland). The cells were harvested and pelleted by centrifugation at 900 rpm for 3 min at room temperature. The supernatant was then removed, and the cell pellet was resuspended in fresh culture medium. The cells were plated into 96 -well plates (100 μL, containing 80,000 cells per well) and incubated […]
The culture medium was removed, and the cells were washed once with 50 μL phosphate buffered saline without Ca2+ and Mg2+. Thereafter, 90 μL of Krebs -Ringer bicarbonate buffer (Sigma- […]
to 10 μM cAMP) was included on each plate. In addition, a reference plate containing RO5256390, β-phenylethylamine, and p-tyramine was included in each experiment. Test compound solution, β-phenylethylamine (as maximal response), or basal control were added at a volume of 30 μL, and the cells […]
Afterwards, the cells were lysed with 50 μL of detection mix solution […]
under heavy shaking. Fluorescence was then measured.
3.4 Plasma and brain tissue analysis
3.4.1 Analytical standards […]
to spike blank plasma or tissue homogenate at calibration standards of 1, 2.5, 5, 10, 25, 50, 100, 250, and […]
Extraction was performed by protein precipitation with 150 µL of acetonitrile added to 50 µL plasma in a 2-mL centrifuge tube. The samples were then vortexed for 10 s and shaken for 3 min at […]

h5-HT2A = h5-HT2A (Homo sapiens, UniProt P28223); experiment: biochemical; type: binding; parameters: expressed in transfected cells; host or cells: HEK 293 cells (membrane preparation)
Sequence of h5-HT2A (P28223 whole entry, looked up): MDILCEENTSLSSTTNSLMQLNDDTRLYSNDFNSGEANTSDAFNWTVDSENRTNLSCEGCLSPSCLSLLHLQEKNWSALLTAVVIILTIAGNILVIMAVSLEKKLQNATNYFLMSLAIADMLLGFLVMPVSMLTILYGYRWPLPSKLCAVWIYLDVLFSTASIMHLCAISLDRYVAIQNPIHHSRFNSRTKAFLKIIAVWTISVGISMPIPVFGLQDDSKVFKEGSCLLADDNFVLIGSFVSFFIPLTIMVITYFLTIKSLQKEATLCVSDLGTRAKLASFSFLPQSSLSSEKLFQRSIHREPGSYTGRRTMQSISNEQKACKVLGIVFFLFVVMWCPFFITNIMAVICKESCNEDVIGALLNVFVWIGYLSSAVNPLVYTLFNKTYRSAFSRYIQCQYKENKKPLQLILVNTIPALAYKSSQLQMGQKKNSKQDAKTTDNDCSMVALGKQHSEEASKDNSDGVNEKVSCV

SMILES	Ki (h5-HT2C [1])	EC50 (h5-HT2C [2])	Emax (h5-HT2C [2])	EC50 (hTAAR1)	Ki (h5-HT2A)	Selectivity (binding ratios) 5-HT2A/5-HT1A (h5-HT2A)	Selectivity (binding ratios) 5-HT2A/5-HT2B (h5-HT2A)	Selectivity (binding ratios) 5-HT2A/5-HT2C (h5-HT2A)	Emax (hTAAR1)	Selectivity (binding ratios) 5-HT2A/5-HT1A (h5-HT2A; ratio of Ki values)	Selectivity (binding ratios) 5-HT2A/5-HT2B (h5-HT2A; ratio of Ki values)	Selectivity (binding ratios) 5-HT2A/5-HT2C (h5-HT2A; ratio of Ki values)	Emax (h5-HT2C [2]; normalized to maximal effect of 5-HT)
COc1ccc(OC)c(CC(C)N)c1.Cl (stereo not shown) [2,5-DMA, 2,5-Dimethoxyamphetamine hydrochloride]	> 5 µM	0.124 µM	103%	> 30 µM	–	–	–	–	–	–	–	–	–
CCCc1cc(OC)c(CC(C)N)cc1OC.Cl (stereo not shown) [DOPR, 4-propyl-2,5-dimethoxyamphetamine hydrochloride]	0.047 µM	0.00093 µM	99%	10.1 µM	0.011 µM	359	11	4	95%	–	–	–	–
COc1cc(CC(C)N)c(OC)cc1C (stereo not shown) [DOM, 4-methyl-2,5-dimethoxyamphetamine]	–	–	–	> 30 µM	0.066 µM	–	–	–	–	–	–	–	–
CCCCc1cc(OC)c(CC(C)N)cc1OC (stereo not shown) [DOBU, 4-butyl-2,5-dimethoxyamphetamine]	0.06 µM	0.00013 µM	–	10.4 µM	0.0054 µM	–	–	–	98%	2506	30	11	95%
CCc1cc(OC)c(CC(C)N)cc1OC (stereo not shown) [DOET, 4-ethyl-2,5-dimethoxyamphetamine]	–	–	–	–	0.012 µM	–	–	–	–	–	–	–	–
CCCCCc1cc(OC)c(CC(C)N)cc1OC (stereo not shown) [DOAM, 4-amyl-2,5-dimethoxyamphetamine]	0.075 µM	0.0009 µM	94%	21.8 µM	0.0035 µM	–	–	–	86%	2407	28	21	–
